The target of this experiment is human CSNK1D (Homo sapiens (Human), UniProt P48730). Nature of the experiment: CSNK1D assay (ADP-Glo, 1 μM ATP). In kind it is biochemical. The settings on record: median, Table 2, read-out: CSNK1D IC50 [mol/l] (median). The essentials:
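GST-tagged full-length human CSNK1D (baculovirus/insect cell; typically about 0.5 ng/μL) preincubated with compound 15 min, then reacted 30 min at 22 °C with 1 μM ATP and 30 μM biotinylated peptide (final) in HEPES pH 7.5 buffer. ADP quantified by ADP-Glo luminescence; data normalised to no-inhibitor and no-enzyme controls.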
Chain of human CSNK1D (P48730 whole entry): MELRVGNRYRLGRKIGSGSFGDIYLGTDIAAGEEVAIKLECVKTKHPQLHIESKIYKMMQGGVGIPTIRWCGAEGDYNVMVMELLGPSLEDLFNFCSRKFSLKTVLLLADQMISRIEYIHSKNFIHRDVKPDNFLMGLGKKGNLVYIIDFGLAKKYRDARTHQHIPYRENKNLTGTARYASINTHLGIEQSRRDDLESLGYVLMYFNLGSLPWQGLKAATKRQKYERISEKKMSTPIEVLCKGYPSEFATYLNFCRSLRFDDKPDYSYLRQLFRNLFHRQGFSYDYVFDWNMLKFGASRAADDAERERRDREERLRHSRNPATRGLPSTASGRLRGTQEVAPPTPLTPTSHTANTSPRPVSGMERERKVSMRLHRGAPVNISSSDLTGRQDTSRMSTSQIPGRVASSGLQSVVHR
In the case of `CN1CC(CC2CC2)c2[nH]c(-c3ccnc(NC(=O)Cc4ccc(F)cc4)c3)c(Nc3cscn3)c2C1=O` (single isomer, unassigned) [Example 50, N-{4-[(7R or S)-7-(cyclopropylmethyl)-5-methyl-4-oxo-3-(1,3-thiazol-4-ylamino)-4,5,6,7-tetrahydro-1H-pyrrolo[3,2-c]pyridin-2-yl]pyridin-2-yl}-2-(4-fluorophenyl)acetamide], the IC50 is 9.9 nM.

As to `CN1CC(CC(F)(F)F)c2[nH]c(-c3ccnc(NC(=O)Cc4ccc(F)cc4)c3)c(Nc3cscn3)c2C1=O` (single isomer, unassigned) [Example 47, 2-(4-fluorophenyl)-N-{4-[(7R or S)-5-methyl-4-oxo-3-(1,3-thiazol-4-ylamino)-7-(2,2,2-trifluoroethyl)-4,5,6,7-tetrahydro-1H-pyrrolo[3,2-c]pyridin-2-yl]pyridin-2-yl}acetamide], the IC50 was determined as 8.4 nM.

`Cn1cc(CC(F)(F)F)c2[nH]c(-c3ccnc(NC(=O)C(CC(F)F)c4ccc(F)cc4)c3)c(Nc3ccccc3)c2c1=O` (single isomer, unassigned) [Example 36, N-{4-[3-anilino-5-methyl-4-oxo-7-(2,2,2-trifluoroethyl)-4,5-dihydro-1H-pyrrolo[3,2-c]pyridin-2-yl]pyridin-2-yl}-4,4-difluoro-2-(4-fluorophenyl)butanamide]: the IC50 was found to be 7.6 nM.

As to `Cc1cn(C)c(=O)c2c(Nc3ccccc3)c(-c3ccnc(NC(=O)C(C)c4ccc(F)cc4)c3)[nH]c12` (single isomer, unassigned) [Example 40, N-[4-(3-anilino-5,7-dimethyl-4-oxo-4,5-dihydro-1H-pyrrolo[3,2-c]pyridin-2-yl)pyridin-2-yl]-2-(4-fluorophenyl)propanamide], the IC50 was found to be 19 nM.

`CCC1CNC(=O)c2c1[nH]c(-c1ccnc(NC(=O)Cc3ccc(F)cc3)c1)c2Nc1ccccc1` (racemic) [Example 1, N-{4-[3-anilino-7-ethyl-4-oxo-4,5,6,7-tetrahydro-1H-pyrrolo[3,2-c]pyridin-2-yl]pyridin-2-yl}-2-(4-fluorophenyl)acetamide]: the IC50 came to 5.5 nM.

Regarding `Cc1cn(C)c(=O)c2c(Nc3ccccc3)c(-c3ccnc(NC(=O)C(CC(F)F)c4ccc(F)cc4)c3)[nH]c12` (single isomer, unassigned) [Example 13, N-[4-(3-anilino-5,7-dimethyl-4-oxo-4,5-dihydro-1H-pyrrolo[3,2-c]pyridin-2-yl)pyridin-2-yl]-4,4-difluoro-2-(4-fluorophenyl)butanamide], the IC50 was 22 nM.

Turning to `CC1CN(C)C(=O)c2c1[nH]c(-c1ccnc(NC(=O)Cc3ccc(F)cc3)c1)c2Nc1ccccc1` (racemic) [Example 6, N-{4-[3-anilino-5,7-dimethyl-4-oxo-4,5,6,7-tetrahydro-1H-pyrrolo[3,2-c]pyridin-2-yl]pyridin-2-yl}-2-(4-fluorophenyl)acetamide], the IC50 amounted to 6.5 nM.

On to `CN1CC(CC(F)F)c2[nH]c(-c3ccnc(NC(=O)Cc4ccc(F)cc4)c3)c(Nc3ccccc3)c2C1=O` (single isomer, unassigned) [Example 43, N-{4-[3-anilino-7-(2,2-difluoroethyl)-5-methyl-4-oxo-4,5,6,7-tetrahydro-1H-pyrrolo[3,2-c]pyridin-2-yl]pyridin-2-yl}-2-(4-fluorophenyl)acetamide], for which the IC50 was found to be 4.3 nM.

In the case of `Cn1cc(CC(F)F)c2[nH]c(-c3ccnc(NC(=O)Cc4ccc(F)cc4)c3)c(Nc3ccccc3)c2c1=O` [Example 45, N-{4-[3-anilino-7-(2,2-difluoroethyl)-5-methyl-4-oxo-4,5-dihydro-1H-pyrrolo[3,2-c]pyridin-2-yl]pyridin-2-yl}-2-(4-fluorophenyl)acetamide], the IC50 worked out at 9.7 nM.

With `CN1CC(CC(F)(F)F)c2[nH]c(-c3ccnc(NC(=O)C(CC(F)F)c4ccc(F)cc4)c3)c(Nc3cscn3)c2C1=O` (racemic) [Example 52, (2RS)-4,4-difluoro-2-(4-fluorophenyl)-N-{4-[(7RS)-5-methyl-4-oxo-3-[(1,3-thiazol-4-yl)amino]-7-(2,2,2-trifluoroethyl)-4,5,6,7-tetrahydro-1H-pyrrolo[3,2-c]pyridin-2-yl]pyridin-2-yl}butanamide], the IC50 worked out at 12 nM.

As to `Cc1ccccc1Nc1c(-c2ccnc(NC(=O)Cc3ccc(F)cc3)c2)[nH]c2c(CC(F)(F)F)cn(C)c(=O)c12` [Example 33, 2-(4-fluorophenyl)-N-{4-[5-methyl-3-(2-methylanilino)-4-oxo-7-(2,2,2-trifluoroethyl)-4,5-dihydro-1H-pyrrolo[3,2-c]pyridin-2-yl]pyridin-2-yl}acetamide], the IC50 is 6.2 nM.

As to `CN1CC(CC(F)(F)F)c2[nH]c(-c3ccnc(NC(=O)C(CC(F)F)c4ccc(F)cc4)c3)c(Nc3cscn3)c2C1=O` (single isomer, unassigned) [Example 55, (2R or S)-4,4-difluoro-2-(4-fluorophenyl)-N-{4-[(7R or S)-5-methyl-4-oxo-3-[(1,3-thiazol-4-yl)amino]-7-(2,2,2-trifluoroethyl)-4,5,6,7-tetrahydro-1H-pyrrolo[3,2-c]pyridin-2-yl]pyridin-2-yl}butanamide], the IC50 was 110 nM.

For the compound `CN1CC(CC(F)F)c2[nH]c(-c3ccnc(NC(=O)Cc4ccc(F)cc4)c3)c(Nc3ccccc3)c2C1=O` (single isomer, unassigned) [Example 44, N-{4-[3-anilino-7-(2,2-difluoroethyl)-5-methyl-4-oxo-4,5,6,7-tetrahydro-1H-pyrrolo[3,2-c]pyridin-2-yl]pyridin-2-yl}-2-(4-fluorophenyl)acetamide], the IC50 was 5.9 nM.

On to `O=C1N[C@@H]2CCC[C@@H]2c2[nH]c(-c3ccnc(NC(=O)C(CC(F)F)c4ccc(F)cc4)c3)c(Nc3ccccc3)c21` (single isomer, unassigned; (+)) [Example 22, (+)-(2R or S)—N-{4-[cis-3-anilino-4-oxo-1,4,5,5a,6,7,8,8a-octahydrocyclopenta[b]pyrrolo[2,3-d]pyridin-2-yl]pyridin-2-yl}-4,4-difluoro-2-(4-fluorophenyl)butanamide], for which the IC50 worked out at 6.3 nM.

Turning to `Cn1cc(CC(F)(F)F)c2[nH]c(-c3ccnc(NC(=O)C(CC(F)F)c4ccc(F)cc4)c3)c(Nc3ccccc3)c2c1=O` (single isomer, unassigned) [Example 37, N-{4-[3-anilino-5-methyl-4-oxo-7-(2,2,2-trifluoroethyl)-4,5-dihydro-1H-pyrrolo[3,2-c]pyridin-2-yl]pyridin-2-yl}-4,4-difluoro-2-(4-fluorophenyl)butanamide], the IC50 amounted to 15 nM.

The values above are taken from patent publication US20230365554A1, “SUBSTITUTED PYRROLO-PYRIDINONE DERIVATIVES AND THERAPEUTIC USES THEREOF” (The Broad Institute, Inc., priority 2020, published 2023).
